Consider 25 compounds from patent publication US20240002344A1, “COMPOUNDS, COMPOSITIONS AND METHODS FOR HISTONE LYSINE DEMETHYLASE INHIBITION” (FibroGen, Inc., priority 2020, published 2024).

In one assay the target is T1, recombinant human KDM5B (Homo sapiens, UniProt Q9UGL1).
T1 sequence (Q9UGL1 374-755 limits assumed): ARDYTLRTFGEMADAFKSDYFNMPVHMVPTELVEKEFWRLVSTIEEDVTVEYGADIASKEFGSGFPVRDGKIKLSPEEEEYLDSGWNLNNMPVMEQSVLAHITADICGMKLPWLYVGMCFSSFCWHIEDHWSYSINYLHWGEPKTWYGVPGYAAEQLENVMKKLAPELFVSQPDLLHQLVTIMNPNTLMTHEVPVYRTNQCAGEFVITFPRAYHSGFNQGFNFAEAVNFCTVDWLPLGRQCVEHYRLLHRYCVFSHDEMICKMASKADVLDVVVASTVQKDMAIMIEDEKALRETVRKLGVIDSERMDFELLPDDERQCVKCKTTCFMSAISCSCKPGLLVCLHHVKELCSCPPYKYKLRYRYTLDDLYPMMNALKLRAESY
The assay can be described thus: 14CO2 capture enzymatic assay (decarboxylation of [1-14C] αKG), KDM5B. The class given is biochemical. As to conditions: 10 μM [1-14C] αKG, 90 μM non-labeled αKG, 50 μM peptide substrate, 37° C., 1 hour, final 1% DMSO. The method, boiled down: (§1)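 Truncated recombinant human KDM5B (H3K4me3 peptide) or KDM4A (H3K9me3 peptide), 50 μM peptide, with 10 μM [1-14C]αKG plus 90 μM unlabeled αKG, 10 μM Fe(SO4), 2 mM ascorbate in pH 7.4 HEPES, 1 h at 37 °C, 1% DMSO. Released 14CO2 trapped on Ba(OH)2 filter; IC50 by non-linear fit.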

Another assay concerns the target T2, recombinant human KDM4A (Homo sapiens, UniProt O75164).
T2 construct: made in house
T2 sequence (O75164 1-359 limits assumed): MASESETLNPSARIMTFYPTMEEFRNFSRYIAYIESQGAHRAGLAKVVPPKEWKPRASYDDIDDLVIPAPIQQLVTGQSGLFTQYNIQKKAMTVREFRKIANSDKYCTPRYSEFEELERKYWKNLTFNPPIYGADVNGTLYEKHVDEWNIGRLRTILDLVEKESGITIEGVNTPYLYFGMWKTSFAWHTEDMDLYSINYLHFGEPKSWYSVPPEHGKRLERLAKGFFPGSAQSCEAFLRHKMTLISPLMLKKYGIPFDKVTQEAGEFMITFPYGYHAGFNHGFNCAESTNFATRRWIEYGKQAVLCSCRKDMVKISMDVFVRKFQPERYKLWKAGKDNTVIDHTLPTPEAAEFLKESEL
Description: 14CO2 capture enzymatic assay (decarboxylation of [1-14C] αKG), KDM4A. Type of assay: biochemical. As to conditions: 10 μM [1-14C] αKG, 90 μM non-labeled αKG, 50 μM peptide substrate, 37° C., 1 hour, final 1% DMSO. The method, boiled down:
as §1

Consider `N#Cc1ccc(C(F)(F)F)cc1-c1cc(C#N)c(O)c(C(=O)CCC(=O)O)n1` [Example 105, 4-[4-Cyano-6-(2-cyano-5-trifluoromethyl-phenyl)-3-hydroxy-pyridin-2-yl]-4-oxo-butyric acid], for which the IC50 was 420 nM at recombinant human KDM5B and greater than 40000 nM at recombinant human KDM4A.
As to `Cc1c(F)cccc1-c1cc(C#N)c(O)c(C(=O)CCC(=O)O)n1` [Example 80, 4-[4-Cyano-6-(3-fluoro-2-methyl-phenyl)-3-hydroxy-pyridin-2-yl]-4-oxo-butyric acid], the half-inhibitory concentration (IC50) on recombinant human KDM5B was 390 nM; on recombinant human KDM4A it was greater than 40000 nM.
Consider `N#Cc1cccc(Cc2cc(C#N)c(O)c(C(=O)CCC(=O)O)n2)c1` [Example 45, 4-[4-Cyano-6-(3-cyano-benzyl)-3-hydroxy-pyridin-2-yl]-4-oxo-butyric acid], for which the half-inhibitory concentration (IC50) at recombinant human KDM5B was 540 nM; at recombinant human KDM4A it was greater than 40000 nM.
For `N#Cc1cc(Cc2c(Cl)cccc2Cl)nc(C(=O)CCC(=O)O)c1O` [Example 32, 4-[4-Cyano-6-(2,6-dichloro-benzyl)-3-hydroxy-pyridin-2-yl]-4-oxo-butyric acid] the same measures were 240 nM and 12000 nM.
For `Cc1cccc(C)c1C(=O)Nc1cc(C#N)c(O)c(C(=O)CCC(=O)O)n1` [Example 129, 4-[4-Cyano-6-(2,6-dimethyl-benzoylamino)-3-hydroxy-pyridin-2-yl]-4-oxo-butyric acid] the same measures were 560 nM and greater than 40000 nM.
For `N#Cc1cc(Cc2ccc(F)cc2)nc(C(=O)CCC(=O)O)c1O` [Example 40, 4-[4-Cyano-6-(4-fluoro-benzyl)-3-hydroxy-pyridin-2-yl]-4-oxo-butyric acid] the same measures were 60 nM and 17000 nM.
As for `COc1ccc(Cc2cc(C#N)c(O)c(C(=O)CCC(=O)O)n2)cc1` [Example 27, 4-[4-Cyano-3-hydroxy-6-(4-methoxy-benzyl)-pyridin-2-yl]-4-oxo-butyric acid], the IC50 at recombinant human KDM5B was 550 nM; on recombinant human KDM4A, greater than 40000 nM.
In the same order, the values of `Cc1cc(F)cc(C)c1Cc1cc(C#N)c(O)c(C(=O)CCC(=O)O)n1` [Example 151, 4-[4-Cyano-6-(4-fluoro-2,6-dimethyl-benzyl)-3-hydroxy-pyridin-2-yl]-4-oxo-butyric acid] are 500 nM and 1500 nM.
For `N#Cc1cc(Cc2cccc(F)c2)nc(C(=O)CCC(=O)O)c1O` [Example 42, 4-[4-Cyano-6-(3-fluoro-benzyl)-3-hydroxy-pyridin-2-yl]-4-oxo-butyric acid] the same measures were 210 nM and 32000 nM.
In the same order, the values of `O=C(O)CCC(=O)c1nc(Br)cc(Br)c1O` [Example 1, 4-(4,6-Dibromo-3-hydroxy-pyridin-2-yl)-4-oxo-butyric acid] are 450 nM and 36000 nM.
`CCc1ccccc1-c1cc(C#N)c(O)c(C(=O)CCC(=O)O)n1` [Example 85, 4-[4-Cyano-6-(2-ethyl-phenyl)-3-hydroxy-pyridin-2-yl]-4-oxo-butyric acid]: the IC50 was 450 nM at recombinant human KDM5B and greater than 40000 nM at recombinant human KDM4A.
For the compound `N#Cc1cc(Cc2c(Cl)cccc2C(F)(F)F)nc(C(=O)CCC(=O)O)c1O` [Example 59, 4-[6-(2-Chloro-6-trifluoromethyl-benzyl)-4-cyano-3-hydroxy-pyridin-2-yl]-4-oxo-butyric acid], the IC50 at recombinant human KDM5B was 330 nM; on recombinant human KDM4A, greater than 40000 nM.
For `COc1ccc(-c2cc(C#N)c(O)c(C(=O)CCC(=O)O)n2)cc1` [Example 9, 4-[4-Cyano-3-hydroxy-6-(4-methoxy-phenyl)-pyridin-2-yl]-4-oxo-butyric acid] the same measures were 160 nM and greater than 40000 nM.
In the same order, the values of `N#Cc1cc(-c2ccc(F)c3ccccc23)nc(C(=O)CCC(=O)O)c1O` [Example 109, 4-[4-Cyano-6-(4-fluoro-naphthalen-1-yl)-3-hydroxy-pyridin-2-yl]-4-oxo-butyric acid] are 250 nM and greater than 40000 nM.
In the same order, the values of `O=C(O)CCC(=O)c1nc(C(F)(F)F)cc(C(F)(F)F)c1O` [Example 4, 4-(3-Hydroxy-4,6-bis-trifluoromethyl-pyridin-2-yl)-4-oxo-butyric acid] are 230 nM and 3500 nM.
In the case of `Cc1ccc(C(F)(F)F)cc1-c1cc(C#N)c(O)c(C(=O)CCC(=O)O)n1` [Example 97, 4-[4-Cyano-3-hydroxy-6-(2-methyl-5-trifluoromethyl-phenyl)-pyridin-2-yl]-4-oxo-butyric acid], the IC50 is 300 nM on recombinant human KDM5B and greater than 40000 nM on recombinant human KDM4A.
In the same order, the values of `Cc1ccc(Oc2cc(C#N)c(O)c(C(=O)CCC(=O)O)c2)cc1` [Example 139, 4-(3-Cyano-2-hydroxy-5-p-tolyloxy-phenyl)-4-oxo-butyric acid] are 560 nM and greater than 40000 nM.
In the same order, the values of `N#Cc1cc(-c2cccc(-c3ccccc3)c2)nc(C(=O)CCC(=O)O)c1O` [Example 74, 4-(6-Biphenyl-3-yl-4-cyano-3-hydroxy-pyridin-2-yl)-4-oxo-butyric acid] are 60 nM and greater than 40000 nM.
For `N#Cc1cc(Cc2c(Cl)cc(C(F)(F)F)cc2Cl)nc(C(=O)CCC(=O)O)c1O` [Example 145, 4-[4-Cyano-6-(2,6-dichloro-4-trifluoromethyl-benzyl)-3-hydroxy-pyridin-2-yl]-4-oxo-butyric acid] the same measures were 360 nM and greater than 40000 nM.
Regarding `N#Cc1cc(Cc2ccccc2Cl)nc(C(=O)CCC(=O)O)c1O` [Example 21, 4-[6-(2-Chloro-benzyl)-4-cyano-3-hydroxy-pyridin-2-yl]-4-oxo-butyric acid], the half-maximal inhibitory concentration (IC50) was 210 nM at recombinant human KDM5B and 29000 nM at recombinant human KDM4A.
Turning to `Cc1cccc(C)c1C(=O)N(C)c1cc(C#N)c(O)c(C(=O)CCC(=O)O)n1` [Example 130, 4-{4-Cyano-6-[(2,6-dimethyl-benzoyl)-N-methyl-amino]-3-hydroxy-pyridin-2-yl}-4-oxo-butyric acid], the results for the IC50 at recombinant human KDM5B and on recombinant human KDM4A were 3200 nM and greater than 40000 nM, respectively.
For `N#Cc1cc(Cc2c(F)cc(F)cc2F)nc(C(=O)CCC(=O)O)c1O` [Example 55, 4-[4-Cyano-3-hydroxy-6-(2,4,6-trifluoro-benzyl)-pyridin-2-yl]-4-oxo-butyric acid] the same measures were 220 nM and 34000 nM.
For `Cc1cc(Cl)c(Cc2cc(C#N)c(O)c(C(=O)CCC(=O)O)n2)c(Cl)c1` [Example 127, 4-[4-Cyano-6-(2,6-dichloro-4-methyl-benzyl)-3-hydroxy-pyridin-2-yl]-4-oxo-butyric acid] the same measures were 60 nM and greater than 40000 nM.
Consider `Cc1cc(C#N)ccc1-c1cc(C#N)c(O)c(C(=O)CCC(=O)O)n1` [Example 99, 4-[4-Cyano-6-(4-cyano-2-methyl-phenyl)-3-hydroxy-pyridin-2-yl]-4-oxo-butyric acid], for which the IC50 on recombinant human KDM5B was 270 nM; on recombinant human KDM4A it was greater than 40000 nM.
With `N#Cc1cc(-c2ccc(-c3ccccc3)c3ccccc23)nc(C(=O)CCC(=O)O)c1O` [Example 111, 4-[4-Cyano-3-hydroxy-6-(4-phenyl-naphthalen-1-yl)-pyridin-2-yl]-4-oxo-butyric acid], the IC50 at recombinant human KDM5B was 320 nM; on recombinant human KDM4A, greater than 40000 nM.

As a reminder, the IC50 is the concentration that inhibits the measured activity by half.
